Test results published in ChEMBL document CHEMBL1201862, “PubChem BioAssay data set” (2004).
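In this assay, cells in 96-well plates receive the compound at five concentrations for 48 hours. Endpoints are linearly interpolated between the surrounding concentrations. Abbreviation: GI50, concentration required for 50% inhibition of growth.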 Calls of active or inactive are those of the source. Cut-off read from the data, not from the text of the source: active = GI50 up to about 1.1 µM and inactive = higher.

Legend:
Test in all cases: DTP human tumour cell line panel, 48 h
UACC-62 = system: UACC-62
IGROV-1 = system: IGROV-1
UO-31 = system: UO-31
HT-29 = system: HT-29
HOP-18 = system: HOP-18
HCT-15 = system: HCT-15
HL-60 = system: HL-60
COLO 205 = system: COLO 205
XF498 = system: XF498
SNB-78 = system: SNB-78
U-251 = system: U-251
LOX IMVI = system: LOX IMVI
SF-539 = system: SF-539
CCRF-CEM = system: CCRF-CEM
MOLT-4 = system: MOLT-4
SNB-75 = system: SNB-75
OVCAR-3 = system: OVCAR-3
NCI-H23 = system: NCI-H23
NCI/ADR-RES = system: NCI/ADR-RES
SF-295 = system: SF-295
SK-OV-3 = system: SK-OV-3
SK-MEL-2 = system: SK-MEL-2
OVCAR-4 = system: OVCAR-4
M19-MEL = system: M19-MEL
A549 = system: A549
CAKI-1 = system: CAKI-1
K562 = system: K562
OVCAR-5 = system: OVCAR-5
DLD-1 = system: DLD-1
KM-20L2 = system: KM-20L2
HCC 2998 = system: HCC 2998
HOP-92 = system: HOP-92
SF-268 = system: SF-268
SNB-19 = system: SNB-19
Malme-3M = system: Malme-3M
HOP-62 = system: HOP-62
NCI-H522 = system: NCI-H522
SK-MEL-5 = system: SK-MEL-5
UACC-257 = system: UACC-257
OVCAR-8 = system: OVCAR-8
NCI-H460 = system: NCI-H460
HCT-116 = system: HCT-116
SW-620 = system: SW-620
RXF 393 = system: RXF 393
EKVX = system: EKVX
DMS-114 = system: DMS-114
SK-MEL-28 = system: SK-MEL-28
KM12 = system: KM12
SN12C = system: SN12C
A498 = system: A498
RPMI-8226 = system: RPMI-8226
DMS-273 = system: DMS-273
NCI-H226 = system: NCI-H226
MCF7 = system: MCF7
LXFL 529 = system: LXFL 529
ACHN = system: ACHN
SR = system: SR
M14 = system: M14
TK-10 = system: TK-10
786-0 = system: 786-0

With `Cc1c(C2=NN=C(/N=N/c3c(O)cccc3O)/C2=C/c2ccccc2)c(=O)n(-c2ccccc2)n1C` the GI50 (UACC-62) was > 100 µM (inactive), the GI50 (IGROV-1) was > 100 µM (inactive) and the GI50 (UO-31) was > 100 µM (inactive). The GI50 (HT-29) was > 100 µM (inactive), the GI50 (HOP-18) was > 100 µM (inactive) and the GI50 (HCT-15) was > 100 µM. For the same compound, the GI50 (HL-60) was > 100 µM (inactive), the GI50 (COLO 205) was > 100 µM (inactive) and the GI50 (XF498) was > 100 µM (inactive). The GI50 (SNB-78) was > 100 µM (inactive), the GI50 (U-251) was > 100 µM (inactive) and the GI50 (LOX IMVI) was > 100 µM (inactive). The GI50 (SF-539) was > 100 µM (inactive), the GI50 (CCRF-CEM) was > 100 µM (inactive) and the GI50 (MOLT-4) was > 100 µM (inactive). The GI50 (SNB-75) was > 100 µM (inactive), the GI50 (OVCAR-3) was > 100 µM (inactive) and the GI50 (NCI-H23) was > 100 µM (inactive). The GI50 (NCI/ADR-RES) was > 100 µM (inactive), the GI50 (SF-295) was > 100 µM (inactive) and the GI50 (SK-OV-3) was > 100 µM (inactive). The GI50 (SK-MEL-2) was > 100 µM (inactive), the GI50 (OVCAR-4) was > 100 µM (inactive) and the GI50 (M19-MEL) was > 100 µM (inactive). For the same compound, the GI50 (A549) was > 100 µM (inactive), the GI50 (CAKI-1) was > 100 µM (inactive) and the GI50 (K562) was > 100 µM (inactive). For the same compound, the GI50 (OVCAR-5) was > 100 µM (inactive), the GI50 (DLD-1) was > 100 µM (inactive) and the GI50 (KM-20L2) was > 100 µM (inactive). The GI50 (HCC 2998) was > 100 µM (inactive), the GI50 (HOP-92) was > 100 µM (inactive) and the GI50 (SF-268) was > 100 µM (inactive). The GI50 (SNB-19) was > 100 µM (inactive), the GI50 (Malme-3M) was > 100 µM (inactive) and the GI50 (HOP-62) was > 100 µM (inactive). For the same compound, the GI50 (NCI-H522) was > 100 µM (inactive), the GI50 (SK-MEL-5) was > 100 µM (inactive) and the GI50 (UACC-257) was > 100 µM (inactive). The GI50 (OVCAR-8) was > 100 µM (inactive), the GI50 (NCI-H460) was > 100 µM (inactive) and the GI50 (HCT-116) was > 100 µM (inactive). For the same compound, the GI50 (SW-620) was > 100 µM (inactive), the GI50 (RXF 393) was > 100 µM (inactive) and the GI50 (EKVX) was > 100 µM (inactive). For the same compound, the GI50 (DMS-114) was > 100 µM (inactive), the GI50 (SK-MEL-28) was > 100 µM (inactive) and the GI50 (KM12) was > 100 µM (inactive). The GI50 (SN12C) was > 100 µM (inactive), the GI50 (A498) was > 100 µM (inactive) and the GI50 (RPMI-8226) was > 100 µM (inactive). The GI50 (DMS-273) was > 100 µM (inactive), the GI50 (NCI-H226) was > 100 µM (inactive) and the GI50 (MCF7) was > 100 µM (inactive).
With `CC12CCC3C(CCC4(O)C=CCCC34C=O)C1(O)CC(O)C2c1ccc(=O)oc1` (stereo unspecified) the GI50 (UACC-62) was 0.076 µM (active), the GI50 (IGROV-1) was 0.0681 µM (active) and the GI50 (UO-31) was 0.0685 µM (active). The GI50 (HT-29) was 0.117 µM (active), the GI50 (HOP-18) was 0.0679 µM (active) and the GI50 (HCT-15) was 0.0658 µM. For the same compound, the GI50 (HL-60) was 0.0665 µM (active), the GI50 (COLO 205) was 0.113 µM (active) and the GI50 (XF498) was 0.0873 µM (active). The GI50 (SNB-78) was 0.0593 µM (active), the GI50 (U-251) was 0.08 µM (active) and the GI50 (LOX IMVI) was 0.0662 µM (active). For the same compound, the GI50 (SF-539) was < 0.05 µM (active), the GI50 (CCRF-CEM) was 0.0526 µM (active) and the GI50 (MOLT-4) was < 0.05 µM (active). For the same compound, the GI50 (SNB-75) was 0.0713 µM (active), the GI50 (OVCAR-3) was 0.0625 µM (active) and the GI50 (NCI-H23) was 0.0512 µM (active). The GI50 (NCI/ADR-RES) was 0.0679 µM (active), the GI50 (SF-295) was 0.0551 µM (active) and the GI50 (SK-OV-3) was 0.109 µM (active). The GI50 (SK-MEL-2) was 0.111 µM (active), the GI50 (OVCAR-4) was 0.0611 µM (active) and the GI50 (M19-MEL) was 0.0851 µM (active). The GI50 (A549) was 0.0504 µM (active), the GI50 (CAKI-1) was 0.0578 µM (active) and the GI50 (K562) was 0.0741 µM (active). The GI50 (OVCAR-5) was 0.191 µM (active), the GI50 (DLD-1) was 0.0578 µM (active) and the GI50 (KM-20L2) was 0.0668 µM (active). For the same compound, the GI50 (HCC 2998) was 0.117 µM (active), the GI50 (HOP-92) was 0.105 µM (active) and the GI50 (SF-268) was < 0.05 µM (active). The GI50 (SNB-19) was 0.127 µM (active), the GI50 (Malme-3M) was 0.0521 µM (active) and the GI50 (HOP-62) was 0.0556 µM (active). The GI50 (NCI-H522) was < 0.05 µM (active), the GI50 (SK-MEL-5) was 0.0565 µM (active) and the GI50 (UACC-257) was 0.104 µM (active). The GI50 (OVCAR-8) was 0.0682 µM (active), the GI50 (NCI-H460) was 0.0527 µM (active) and the GI50 (HCT-116) was 0.0573 µM (active). The GI50 (SW-620) was 0.0741 µM (active), the GI50 (RXF 393) was < 0.05 µM (active) and the GI50 (EKVX) was 0.0564 µM (active). The GI50 (DMS-114) was < 0.05 µM (active), the GI50 (SK-MEL-28) was 0.134 µM (active) and the GI50 (KM12) was 0.0792 µM (active). The GI50 (SN12C) was 0.0519 µM (active), the GI50 (A498) was 0.054 µM (active) and the GI50 (RPMI-8226) was 0.0697 µM (active). The GI50 (DMS-273) was < 0.05 µM (active), the GI50 (NCI-H226) was 0.148 µM (active) and the GI50 (MCF7) was 0.0773 µM (active).
For `CC(=O)Nc1ccc(-c2nnc(SCC(=O)Nc3ccccc3)o2)cc1`, the GI50 (UACC-62) was 54.5 µM (inactive), the GI50 (LXFL 529) was 34.6 µM (inactive) and the GI50 (IGROV-1) was 47.6 µM (inactive). For the same compound, the GI50 (UO-31) was 79.6 µM (inactive), the GI50 (HT-29) was 60.5 µM (inactive) and the GI50 (HOP-18) was > 100 µM (inactive). The GI50 (HCT-15) was 92 µM, the GI50 (HL-60) was 89.1 µM (inactive) and the GI50 (COLO 205) was > 100 µM (inactive). For the same compound, the GI50 (SNB-78) was 80 µM (inactive), the GI50 (U-251) was 43.7 µM (inactive) and the GI50 (LOX IMVI) was 33.5 µM (inactive). The GI50 (SF-539) was 71.1 µM (inactive), the GI50 (ACHN) was > 100 µM (inactive) and the GI50 (CCRF-CEM) was 59.4 µM (inactive). For the same compound, the GI50 (MOLT-4) was > 100 µM (inactive), the GI50 (SNB-75) was > 100 µM (inactive) and the GI50 (OVCAR-3) was > 100 µM (inactive). The GI50 (NCI-H23) was 39.5 µM (inactive), the GI50 (SF-295) was 77.6 µM (inactive) and the GI50 (SK-OV-3) was > 100 µM (inactive). For the same compound, the GI50 (SK-MEL-2) was > 100 µM (inactive), the GI50 (OVCAR-4) was > 100 µM (inactive) and the GI50 (M19-MEL) was 74.8 µM (inactive). For the same compound, the GI50 (A549) was > 100 µM (inactive), the GI50 (CAKI-1) was > 100 µM (inactive) and the GI50 (K562) was > 100 µM (inactive). For the same compound, the GI50 (OVCAR-5) was > 100 µM (inactive), the GI50 (DLD-1) was 59 µM (inactive) and the GI50 (KM-20L2) was > 100 µM (inactive). For the same compound, the GI50 (HOP-92) was > 100 µM (inactive), the GI50 (SF-268) was > 100 µM (inactive) and the GI50 (Malme-3M) was > 100 µM (inactive). The GI50 (SR) was > 100 µM (inactive), the GI50 (HOP-62) was > 100 µM (inactive) and the GI50 (NCI-H522) was 60.3 µM (inactive). The GI50 (M14) was 86.3 µM (inactive), the GI50 (SK-MEL-5) was 69 µM (inactive) and the GI50 (UACC-257) was 93.8 µM (inactive). The GI50 (OVCAR-8) was > 100 µM (inactive), the GI50 (TK-10) was > 100 µM (inactive) and the GI50 (NCI-H460) was > 100 µM (inactive). For the same compound, the GI50 (HCT-116) was 31.2 µM (inactive), the GI50 (SW-620) was > 100 µM (inactive) and the GI50 (RXF 393) was 89.9 µM (inactive). The GI50 (DMS-114) was 39.8 µM (inactive), the GI50 (SK-MEL-28) was > 100 µM (inactive) and the GI50 (786-0) was > 100 µM (inactive). For the same compound, the GI50 (KM12) was 65 µM (inactive), the GI50 (SN12C) was 90.4 µM (inactive) and the GI50 (RPMI-8226) was 81.7 µM (inactive). The GI50 (DMS-273) was 50.6 µM (inactive) and the GI50 (NCI-H226) was 82.4 µM (inactive).
